The source of these data is paper PMC10428205, “Cytotoxicity of Ruthenium(II) Arene Complexes Containing Functionalized Ferrocenyl β-Diketonate Ligands” (Organometallics, 2023).

This test concerns HCT116 p53+/+. In words: 96 h MTT chemosensitivity assay. The test is classed as cell-based, human. As to the method:
LogP = Log ( [C]final ) Eqn1
96 h Chemosensitivity Studies
In vitro chemosensitivity tests were performed at both the University of Huddersfield and the Institute of Cancer Therapeutics, Bradford, in a sterile Class II Biological Safety Cabinet fitted with a HEPA filtered laminar airflow.
Cellular assays were conducted against human pancreatic carcinoma (MIA PaCa-2), human colorectal carcinoma p53-wildtype (HCT116 p53+/+), and human non-cancerous epithelial retinal cells (ARPE-19). The ARPE-19 cells were obtained from the American Type Culture Collection and provided by the University of Huddersfield. All cell lines were routinely maintained as monolayer cultures in appropriate complete medium and maintained in either T-25 or T-75 flasks at 37 °C and 5% CO2. MIA PaCa-2 and ARPE-19 cells were cultured in high glucose DMEM-F12 medium containing 10% foetal calf serum, and HCT116 p53+/+ was cultured in RPMI 1640 supplemented with 10% foetal calf serum. All medium was supplemented with sodium pyruvate (1 mM) and L-glutamine (2 mM), and prior to chemosensitivity studies, cell monolayers were passaged using Trypsin-EDTA and diluted to a concentration of 1 x 10^4 cells/mL. All assays were conducted using 96-well plates, in which […] of the 1 x 10^4 cells/mL cell suspension was added to each well and incubated for 24 h at 37 °C and 5% CO2. After 24 h, 100 mL of drug dilutions (fresh 100 mM stock solutions in DMSO) in media were added to the plates and then incubated for a further 96 h at 37°C and 5% CO2 (48 h + 48 h recovery period were used for the shorter exposures with MIA PaCa-2 cells only). After 96 h, 20 mL MTT (3-(4,5-dimethylthiazol-2-yl)-2,5-diphenyltetrazolium bromide, 5 mg/mL) was added to each well and incubated for 3 h at 37 °C and 5% CO2. All solutions were then removed from the 96-well plates via pipette and […] of DMSO added to each well to dissolve the purple formazan crystals. After mixing well, the absorbance of each well was measured at 540 nm using a ThermoFisher Multiskan FC spectrophotometer microplate reader. Using the blank and 100% cell controls, the % cell viability was determined [(abs. of compound containing wells – abs. media wells)/(abs. 100% cell suspension well control)] and from this the % cell death (100%- % cell viability) was calculated. On a logarithmic scale, the percentage cell death was plotted against the concentration of compound, and from this the half maximal inhibitory concentration (IC50) value was determined. Each of the experiments were performed in triplicate with mean values being stated as the IC50 ± Standard Deviation (SD). […]
All assays were conducted in triplicate.

Take `[NH2][Pt]([NH2])([Cl])[Cl]` [CDDP, cisplatin, reference compound]: the “Selectivity index (SI), IC50 ARPE-19 / IC50 HCT116 p53+/+” value (96 h, * = minimum value as at least one IC50 > 100) amounted to 1.8. In addition, the IC50 (96 h MTT, ± SD, read-out: IC50 against HCT116 p53+/+) stood at 3.3 ± 0.4 µM.
